According to ChEMBL document CHEMBL1201862, “PubChem BioAssay data set” (2004):
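1) Cells in 96-well plates. 2) Compound, 48 h, 5 concentrations. 3) Linear interpolation between surrounding doses. 4) Unreached endpoint = highest concentration. GI50 marks 50% less growth.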 Active and inactive are the calls of the source. Rule as the data show it: active = GI50 up to about 1.1 µM and inactive = higher.

What was measured:
Experiment in all cases: NCI anticancer screen, dose series, 48 h
[1] = test system: 786-0
[2] = test system: A498
[3] = test system: A549
[4] = test system: ACHN
[5] = test system: CAKI-1
[6] = test system: CCRF-CEM
[7] = test system: COLO 205
[8] = test system: DLD-1
[9] = test system: DMS-114
[10] = test system: DMS-273
[11] = test system: EKVX
[12] = test system: HCC 2998
[13] = test system: HCT-116
[14] = test system: HCT-15
[15] = test system: HOP-18
[16] = test system: HOP-62
[17] = test system: HT-29
[18] = test system: IGROV-1
[19] = test system: K562
[20] = test system: KM-20L2
[21] = test system: KM12
[22] = test system: LOX IMVI
[23] = test system: LXFL 529
[24] = test system: M14
[25] = test system: M19-MEL
[26] = test system: MOLT-4
[27] = test system: Malme-3M
[28] = test system: NCI-H23
[29] = test system: NCI-H460
[30] = test system: OVCAR-3
[31] = test system: OVCAR-4
[32] = test system: OVCAR-5
[33] = test system: OVCAR-8
[34] = test system: RPMI-8226
[35] = test system: RXF 393
[36] = test system: SF-268
[37] = test system: SF-295
[38] = test system: SF-539
[39] = test system: SK-MEL-28
[40] = test system: SK-MEL-2
[41] = test system: SK-MEL-5
[42] = test system: SK-OV-3
[43] = test system: SN12C
[44] = test system: SNB-19
[45] = test system: SNB-75
[46] = test system: SNB-78
[47] = test system: SW-620
[48] = test system: TK-10
[49] = test system: U-251
[50] = test system: UACC-257
[51] = test system: UACC-62
[52] = test system: XF498

Question: With CCOP(=O)(OCC)C1C(=O)O[C@H]2CCCC[C@@H]12 (some centres not stated) as the molecule, how does the GI50 [1] read?
Answer: > 100 µM (inactive)

Question: What about the GI50 [2] of the same molecule?
Answer: > 100 µM (inactive)

Question: And the GI50 [3]?
Answer: > 100 µM (inactive)

Question: And the GI50 [4]?
Answer: > 100 µM (inactive)

Question: What about the GI50 [5] of the same molecule?
Answer: > 100 µM (inactive)

Question: And the GI50 [6]?
Answer: > 100 µM (inactive)

Question: And the GI50 [7]?
Answer: > 100 µM (inactive)

Question: What about the GI50 [8] of the same molecule?
Answer: > 100 µM (inactive)

Question: What about the GI50 [9] of the same molecule?
Answer: > 100 µM (inactive)

Question: And the GI50 [10]?
Answer: > 100 µM (inactive)

Question: And the GI50 [11]?
Answer: > 100 µM (inactive)

Question: And the GI50 [12]?
Answer: > 100 µM (inactive)

Question: And the GI50 [13]?
Answer: > 100 µM (inactive)

Question: What about the GI50 [14] of the same molecule?
Answer: > 100 µM

Question: What about the GI50 [15] of the same molecule?
Answer: 40.6 µM (inactive)

Question: And the GI50 [16]?
Answer: > 100 µM (inactive)

Question: What about the GI50 [17] of the same molecule?
Answer: > 100 µM (inactive)

Question: What about the GI50 [18] of the same molecule?
Answer: > 100 µM (inactive)

Question: What about the GI50 [19] of the same molecule?
Answer: > 100 µM (inactive)

Question: And the GI50 [20]?
Answer: > 100 µM (inactive)

Question: And the GI50 [21]?
Answer: > 100 µM (inactive)

Question: What about the GI50 [22] of the same molecule?
Answer: > 100 µM (inactive)

Question: What about the GI50 [23] of the same molecule?
Answer: > 100 µM (inactive)

Question: And the GI50 [24]?
Answer: > 100 µM (inactive)

Question: And the GI50 [25]?
Answer: > 100 µM (inactive)

Question: What about the GI50 [26] of the same molecule?
Answer: > 100 µM (inactive)

Question: What about the GI50 [27] of the same molecule?
Answer: > 100 µM (inactive)

Question: And the GI50 [28]?
Answer: > 100 µM (inactive)

Question: What about the GI50 [29] of the same molecule?
Answer: > 100 µM (inactive)

Question: What about the GI50 [30] of the same molecule?
Answer: > 100 µM (inactive)

Question: What about the GI50 [31] of the same molecule?
Answer: > 100 µM (inactive)

Question: What about the GI50 [32] of the same molecule?
Answer: > 100 µM (inactive)

Question: What about the GI50 [33] of the same molecule?
Answer: > 100 µM (inactive)

Question: And the GI50 [34]?
Answer: > 100 µM (inactive)

Question: What about the GI50 [35] of the same molecule?
Answer: > 100 µM (inactive)

Question: What about the GI50 [36] of the same molecule?
Answer: > 100 µM (inactive)

Question: And the GI50 [37]?
Answer: > 100 µM (inactive)

Question: And the GI50 [38]?
Answer: > 100 µM (inactive)

Question: And the GI50 [39]?
Answer: > 100 µM (inactive)

Question: What about the GI50 [40] of the same molecule?
Answer: > 100 µM (inactive)

Question: What about the GI50 [41] of the same molecule?
Answer: > 100 µM (inactive)

Question: And the GI50 [42]?
Answer: > 100 µM (inactive)

Question: And the GI50 [43]?
Answer: > 100 µM (inactive)

Question: What about the GI50 [44] of the same molecule?
Answer: > 100 µM (inactive)

Question: What about the GI50 [45] of the same molecule?
Answer: > 100 µM (inactive)

Question: What about the GI50 [46] of the same molecule?
Answer: > 100 µM (inactive)

Question: And the GI50 [47]?
Answer: > 100 µM (inactive)

Question: And the GI50 [48]?
Answer: > 100 µM (inactive)

Question: What about the GI50 [49] of the same molecule?
Answer: > 100 µM (inactive)

Question: What about the GI50 [50] of the same molecule?
Answer: > 100 µM (inactive)

Question: What about the GI50 [51] of the same molecule?
Answer: > 100 µM (inactive)

Question: And the GI50 [52]?
Answer: > 100 µM (inactive)
